Laboratory results as given in PMC3016413, “An Antiretroviral/Zinc Combination Gel Provides 24 Hours of Complete Protection against Vaginal SHIV Infection in Macaques” (PLoS ONE, 2011).
Like-named read-outs stand apart in the source and are kept apart here.

Key:
HIV-1 wild type = tested on: HIV-1 wild type; set-up: method as in Fernández-Romero unpublished; conditions: ref Fernández-Romero unpublished; read-out: IC50 against wild type; cited from earlier work
[1] = tested on: HIV-1 L100I/K103N double mutant; set-up: method as in Fernández-Romero unpublished; conditions: ref Fernández-Romero unpublished; read-out: IC50 against L100I/K103N double mutant; cited from earlier work
[2] = Vaginal pH and cytokines/chemokines in vaginal fluids after repeated gel; assay type: in vivo, Rhesus macaques (Macaca mulatta)
Procedure: PBMCs were isolated from EDTA blood using Ficoll-Hypaque density gradient centrifugation (Amersham Pharmacia Biotech, Uppsala, Sweden) as already described. RPMI 1640 (Invitrogen/GIBCO, Carlsbad, CA, USA) culture medium containing 2 mM L-glutamine (Invitrogen/GIBCO) 10 mM HEPES (N-2-hydroxyethylpiperazine-N'-2-ethanesulfonic acid) (Invitrogen/GIBCO), 50 µM 2-mercaptoethanol (Sigma) penicillin (100 U/ml) and streptomycin (100 µg/ml) (Invitrogen/GIBCO) and 1% heparinized human plasma (Innovative Research, Southfield, MI) was used for final re-suspension of PBMCs. Medium with 10% HI-FBS (heat inactivated fetal bovine serum) (Invitrogen/GIBCO) instead of 1% human plasma was used for the PBMC-174xCEM co-cultures. DNA was isolated from lymph nodes as described with the DNeasy® Blood & Tissue Kit (Qiagen Sciences, MD USA). […] Vaginal pH was determined by inserting pH-indicator strip (EMO Chemical Inc., Gibbstown, NJ) into the vaginal vault for 5 minutes to saturate the pH paper with vaginal fluid.
SIV-specific IFN-γ T cell responses were monitored by ELISPOT using AT-2 SIV (versus the no virus microvesicle controls) as the stimuli and SIV-specific antibodies by ELISA [36]. […] Cell-free vaginal fluids were analyzed for chemokine and cytokine expression using the monkey-reactive Beadlyte human 14-plex Detection System according to the manufacturer's instructions (Invitrogen). […]

HIV-1 = conditions: in vitro; ref Fernández-Romero unpublished; cited from earlier work
R5 and X4 viruses [3] = tested on: R5 and X4 viruses; set-up: method as in PMID 16924181, PMID 18776937, PMID 7545297; conditions: read-out: antiviral IC50; cited from earlier work
R5 and X4 viruses [4] = tested on: R5 and X4 viruses; set-up: method as in PMID 16924181, PMID 18776937, PMID 7545297; conditions: potentially virucidal; cited from earlier work
HIV-1 Y181C mutant = tested on: HIV-1 Y181C mutant; set-up: method as in Fernández-Romero unpublished; conditions: ref Fernández-Romero unpublished; read-out: IC50 against Y181C mutant; cited from earlier work
[5] = rat, in vivo; cited from earlier work
[6] = set-up: method as in PMID 18086845; conditions: 8 h after daily treatment for 7 days with 273 µM TMC120; cited from earlier work

Row | Structure (SMILES) | IC50 (HIV-1 wild type) [nM] | IC50 [1] [nM] | impact on vaginal pH ([2]; before, during and 8 or 24 h after 2 week gel administration) | impact on CXCL8 and CCL2 levels in vaginal fluids ([2]; relative to carrageenan, 2 week daily gel administration) | memory effect: time exposed cells remain resistant to infection (HIV-1) | IC50 (R5 and X4 viruses [3]) [nM] | IC50 (R5 and X4 viruses [4]) [nM] | IC50 (HIV-1 Y181C mutant) [nM] | time to becoming undetectable in plasma (short plasma half-life) [5] [h] | level of TMC120 associated with the cervical tissues [6] [pg/mg]
1 | O=C1Nc2ccc(Cl)cc2[C@@](C#CC2CC2)(C(F)(F)F)O1 [Efavirenz, reference compound] | 0.6 | > 10000 | – | – | – | – | – | – | – | –
2 | CCC(=O)c1ccc(F)c([C@@H]2C[C@@H]2NC(=O)Nc2ccc(C#N)cn2)c1O [MIV-150] | 0.7 | 900 | no impact | no further impact | up to 5 d | < 1 | 400 | 0.2 | ≤ 24 | –
3 | Cc1cc(C)c(Nc2ccnc(Nc3ccc(C#N)cc3)n2)c(C)c1 [TMC120] | – | – | – | – | – | – | – | – | – | 3 to 80
